Laboratory results: patent publication US12502434B2, “Compound comprising EZH2 inhibitor and E3 ligase binder and pharmaceutical composition for preventing or treating EZH2-associated disease comprising same as active ingredient” (DAEGU-GYEONGBUK MEDICAL INNOVATION FOUNDATION, priority 2019, dated 2025)
Read-outs that look alike come from different tables or passages of the source.

Target: T1, EZH2 protein in LS174T cells (Homo sapiens, UniProt Q15910)
T1 construct: endogenous in cells; host or cells: LS174T
T1 sequence (Q15910 whole entry): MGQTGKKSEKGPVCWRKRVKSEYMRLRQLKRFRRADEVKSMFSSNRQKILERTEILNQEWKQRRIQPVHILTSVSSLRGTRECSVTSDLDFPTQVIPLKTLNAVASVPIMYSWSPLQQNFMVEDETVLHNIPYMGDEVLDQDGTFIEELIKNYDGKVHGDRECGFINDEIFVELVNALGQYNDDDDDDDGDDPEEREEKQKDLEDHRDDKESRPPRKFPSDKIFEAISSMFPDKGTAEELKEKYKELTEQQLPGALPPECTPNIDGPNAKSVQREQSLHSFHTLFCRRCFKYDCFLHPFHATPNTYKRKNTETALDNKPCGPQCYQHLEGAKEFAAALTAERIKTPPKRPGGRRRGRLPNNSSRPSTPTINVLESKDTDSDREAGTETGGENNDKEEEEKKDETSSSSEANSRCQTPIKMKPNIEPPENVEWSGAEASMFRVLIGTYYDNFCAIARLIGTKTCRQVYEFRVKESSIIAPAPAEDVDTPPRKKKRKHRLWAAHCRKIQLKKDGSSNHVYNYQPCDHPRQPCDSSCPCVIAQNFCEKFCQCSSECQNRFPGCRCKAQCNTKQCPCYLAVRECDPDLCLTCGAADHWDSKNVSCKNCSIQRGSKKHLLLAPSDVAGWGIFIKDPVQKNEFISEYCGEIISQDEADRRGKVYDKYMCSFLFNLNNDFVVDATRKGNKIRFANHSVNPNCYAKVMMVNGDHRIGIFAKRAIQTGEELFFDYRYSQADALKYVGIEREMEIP
T1 sequence (O75530 whole entry partner): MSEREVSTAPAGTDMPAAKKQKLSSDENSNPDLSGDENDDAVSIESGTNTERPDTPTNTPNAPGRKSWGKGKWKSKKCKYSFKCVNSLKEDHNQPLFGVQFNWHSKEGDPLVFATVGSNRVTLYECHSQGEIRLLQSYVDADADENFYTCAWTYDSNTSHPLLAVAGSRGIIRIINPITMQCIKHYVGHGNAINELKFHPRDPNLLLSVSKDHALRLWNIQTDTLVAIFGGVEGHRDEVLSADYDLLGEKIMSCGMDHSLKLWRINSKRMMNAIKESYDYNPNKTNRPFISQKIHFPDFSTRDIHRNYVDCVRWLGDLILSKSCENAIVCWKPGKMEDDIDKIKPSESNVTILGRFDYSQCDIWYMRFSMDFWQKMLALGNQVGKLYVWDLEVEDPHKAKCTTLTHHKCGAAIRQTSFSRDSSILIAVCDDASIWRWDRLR
T1 sequence (Q15022 whole entry partner): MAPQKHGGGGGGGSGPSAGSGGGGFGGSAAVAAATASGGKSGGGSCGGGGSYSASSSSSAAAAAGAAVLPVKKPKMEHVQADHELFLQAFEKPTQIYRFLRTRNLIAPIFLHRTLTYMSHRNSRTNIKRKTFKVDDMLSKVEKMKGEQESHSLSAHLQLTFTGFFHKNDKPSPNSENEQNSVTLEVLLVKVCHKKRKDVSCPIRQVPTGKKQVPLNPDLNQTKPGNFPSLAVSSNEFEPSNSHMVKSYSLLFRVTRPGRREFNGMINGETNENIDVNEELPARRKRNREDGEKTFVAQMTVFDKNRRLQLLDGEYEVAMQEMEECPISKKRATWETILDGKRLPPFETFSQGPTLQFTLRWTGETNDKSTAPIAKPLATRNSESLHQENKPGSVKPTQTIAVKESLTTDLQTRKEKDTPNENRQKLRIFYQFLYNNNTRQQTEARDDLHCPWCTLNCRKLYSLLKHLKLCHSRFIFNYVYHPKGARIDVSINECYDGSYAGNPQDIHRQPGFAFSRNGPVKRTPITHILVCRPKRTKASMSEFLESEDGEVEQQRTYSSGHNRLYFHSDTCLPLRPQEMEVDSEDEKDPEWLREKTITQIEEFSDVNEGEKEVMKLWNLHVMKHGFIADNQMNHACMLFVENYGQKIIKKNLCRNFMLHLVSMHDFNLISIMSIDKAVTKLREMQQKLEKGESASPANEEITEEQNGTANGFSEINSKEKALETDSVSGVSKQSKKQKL
Assay: Proteolytic effect in colorectal cancer cells (Western blotting)
Type: cell-based
Experimental: After 72 hours of the treatment, the cells were collected and lysed using RIPA buffer (50 mM Tris, pH 7.5, 150 mM NaCl, 1% Triton X-100, 0.1% SDS, […], 0.5% deoxycholate, and protease inhibitor cocktail), followed by sonication (30 sec on/30 sec off, 5 cycles) to prepare a cell lysate.

[1] = EZH2 protein, LS174T cells, 1 μM, 72 hours
[2] = EZH2 protein, LS174T cells, 1 uM, 72 hours, Western blotting

Grade (percent value of the protein degradation when treated with 1 μM) [1]	%, degradation at 1 uM [2] [%]	SMILES	%, degradation at 1 uM [%]	Grade (percent value of the protein degradation when treated with 1 μM)
D (<25%)	8.15	CCN(c1cc(-c2ccc(CN3CCN(CC(=O)NCCNc4cccc5c4C(=O)N(C4CCC(=O)NC4=O)C5=O)CC3)cc2)cc(C(=O)NCc2c(C)cc(C)[nH]c2=O)c1C)C1CCOCC1 (stereo not shown) [Example 1, N-((4,6-dimethyl-2-oxo-1,2-dihydropyridine-3-yl)methyl)-4′-((4-(2-((2-((2-(2,6-dioxopiperidine-3-yl)-1,3-dioxoisoindoline-4-yl)amino)ethyl)amino)-2-oxoethyl)piperazine-1-yl)methyl)-5-(ethyl(tetrahydro-2H-pyran-4-yl)amino)-4-methyl-[1,1′-biphenyl]-3-carboxamide]		
D (<25%)	18.10	CCN(c1cc(-c2ccc(CN3CCN(CCCCCNc4cccc5c4C(=O)N(C4CCC(=O)NC4=O)C5=O)CC3)cc2)cc(C(=O)NCc2c(C)cc(C)[nH]c2=O)c1C)C1CCOCC1 (stereo not shown) [Example 2, N-((4,6-dimethyl-2-oxo-1,2-dihydropyridine-3-yl)methyl)-4′-((4-(5-((2-(2,6-dioxopiperidine-3-yl)-1,3-dioxoisoindoline-4-yl)amino)pentyl)piperazine-1-yl)methyl)-5-(ethyl(tetrahydro-2H-pyran-4-yl)amino)-4-methyl-[1,1′-biphenyl]-3-carboxamide]		
D (<25%)	0	CCN(c1cc(-c2ccc(CN3CCN(CC(=O)NCCOCCOCCOCCC(=O)NCCNc4cccc5c4C(=O)N(C4CCC(=O)NC4=O)C5=O)CC3)cc2)cc(C(=O)NCc2c(C)cc(C)[nH]c2=O)c1C)C1CCOCC1 (stereo not shown) [Example 4, N-((4,6-dimethyl-2-oxo-1,2-dihydropyridine-3-yl)methyl)-4′-((4-(18-((2-(2,6-dioxopiperidine-3-yl)-1,3-dioxoisoindoline-4-yl)amino)-2,15-dioxo-6,9,12-trioxa-3,16-diazaoctadecyl)piperazine-1-yl)methyl)-5-(ethyl(tetrahydro-2H-pyran-4-yl)amino)-4-methyl-[1,1′-biphenyl]-3-carboxamide]		
D (<25%)	0	CCN(c1cc(-c2ccc(CN3CCN(CC(=O)NCCOc4cccc5c4C(=O)N(C4CCC(=O)NC4=O)C5=O)CC3)cc2)cc(C(=O)NCc2c(C)cc(C)[nH]c2=O)c1C)C1CCOCC1 (stereo not shown) [Example 5, N-((4,6-dimethyl-2-oxo-1,2-dihydropyridine-3-yl)methyl)-4′-((4-(2-((2-((2-(2,6-dioxopiperidine-3-yl)-1,3-dioxoisoindoline-4-yl)oxy)ethyl)amino)-2-oxoethyl)piperazine-1-yl)methyl)-5-(ethyl(tetrahydro-2H-pyran-4-yl)amino)-4-methyl-[1,1′-biphenyl]-3-carboxamide]		
B (50-75%)	61.64	CCN(c1cc(-c2ccc(CN3CCN(CC(=O)NCCCCCCNc4cccc5c4C(=O)N(C4CCC(=O)NC4=O)C5=O)CC3)cc2)cc(C(=O)NCc2c(C)cc(C)[nH]c2=O)c1C)C1CCOCC1 (stereo not shown) [Example 6, N-((4,6-dimethyl-2-oxo-1,2-dihydropyridine-3-yl)methyl)-4′-((4-(2-((6-((2-(2,6-dioxopiperidine-3-yl)-1,3-dioxoisoindoline-4-yl)amino)hexyl)amino)-2-oxoethyl)piperazine-1-yl)methyl)-5-(ethyl(tetrahydro-2H-pyran-4-yl)amino)-4-methyl-[1,1′-biphenyl]-3-carboxamide]		
		CCN(c1cc(-c2ccc(CN3CCN(CC(=O)NCCCCOc4cccc5c4C(=O)N(C4CCC(=O)NC4=O)C5=O)CC3)cc2)cc(C(=O)NCc2c(C)cc(C)[nH]c2=O)c1C)C1CCOCC1 (stereo not shown) [Example 7, N-((4,6-dimethyl-2-oxo-1,2-dihydropyridine-3-yl)methyl)-4′-((4-(2-((4-((2-(2,6-dioxopiperidine-3-yl)-1,3-dioxoisoindoline-4-yl)oxy)butyl)amino)-2-oxoethyl)piperazine-1-yl)methyl)-5-(ethyl(tetrahydro-2H-pyran-4-yl)amino)-4-methyl-[1,1′-biphenyl]-3-carboxamide]	22.74	D (key: A: >75%; B: 50-75%; C: 25-50%; D: <25%)
D (<25%)	2.91	CCN(c1cc(-c2ccc(CN3CCN(CC(=O)NCCCCCCOc4cccc5c4C(=O)N(C4CCC(=O)NC4=O)C5=O)CC3)cc2)cc(C(=O)NCc2c(C)cc(C)[nH]c2=O)c1C)C1CCOCC1 (stereo not shown) [Example 8, N-((4,6-dimethyl-2-oxo-1,2-dihydropyridine-3-yl)methyl)-4′-((4-(2-((6-((2-(2,6-dioxopiperidine-3-yl)-1,3-dioxoisoindoline-4-yl)oxy)hexyl)amino)-2-oxoethyl)piperazine-1-yl)methyl)-5-(ethyl(tetrahydro-2H-pyran-4-yl)amino)-4-methyl-[1,1′-biphenyl]-3-carboxamide]		
D (<25%)	0	CCN(c1cc(-c2ccc(CN3CCN(CCCCCCCOc4cccc5c4C(=O)N(C4CCC(=O)NC4=O)C5=O)CC3)cc2)cc(C(=O)NCc2c(C)cc(C)[nH]c2=O)c1C)C1CCOCC1 (stereo not shown) [Example 10, N-((4,6-dimethyl-2-oxo-1,2-dihydropyridine-3-yl)methyl)-4′-((4-(7-((2-(2,6-dioxopiperidine-3-yl)-1,3-dioxoisoindoline-4-yl)oxy)heptyl)piperazine-1-yl)methyl)-5-(ethyl(tetrahydro-2H-pyran-4-yl)amino)-4-methyl-[1,1′-biphenyl]-3-carboxamide]		
D (<25%)	12.87	CCN(c1cc(-c2ccc(CN3CCN(CCCCCCCNc4cccc5c4C(=O)N(C4CCC(=O)NC4=O)C5=O)CC3)cc2)cc(C(=O)NCc2c(C)cc(C)[nH]c2=O)c1C)C1CCOCC1 (stereo not shown) [Example 11, N-((4,6-dimethyl-2-oxo-1,2-dihydropyridine-3-yl)methyl)-4′-((4-(7-((2-(2,6-dioxopiperidine-3-yl)-1,3-dioxoisoindoline-4-yl)amino)heptyl)piperazine-1-yl)methyl)-5-(ethyl(tetrahydro-2H-pyran-4-yl)amino)-4-methyl-[1,1′-biphenyl]-3-carboxamide]		
D (<25%)	16.89	CCN(c1cc(-c2ccc(CN3CCN(C(=O)CNCCNc4cccc5c4C(=O)N(C4CCC(=O)NC4=O)C5=O)CC3)cc2)cc(C(=O)NCc2c(C)cc(C)[nH]c2=O)c1C)C1CCOCC1 (stereo not shown) [Example 12, N-((4,6-dimethyl-2-oxo-1,2-dihydropyridine-3-yl)methyl)-4′-((4-((2-((2-(2,6-dioxopiperidine-3-yl)-1,3-dioxoisoindoline-4-yl)amino)ethyl)glycyl)piperazine-1-yl)methyl)-5-(ethyl(tetrahydro-2H-pyran-4-yl)amino)-4-methyl-[1,1′-biphenyl]-3-carboxamide]		
C (25-50%)	29.35	CCN(c1cc(-c2ccc(CN3CCN(C(=O)CNCCCCNc4cccc5c4C(=O)N(C4CCC(=O)NC4=O)C5=O)CC3)cc2)cc(C(=O)NCc2c(C)cc(C)[nH]c2=O)c1C)C1CCOCC1 (stereo not shown) [Example 13, N-((4,6-dimethyl-2-oxo-1,2-dihydropyridine-3-yl)methyl)-4′-((4-((4-((2-(2,6-dioxopiperidine-3-yl)-1,3-dioxoisoindoline-4-yl)amino)butyl)glycyl)piperazine-1-yl)methyl)-5-(ethyl(tetrahydro-2H-pyran-4-yl)amino)-4-methyl-[1,1′-biphenyl]-3-carboxamide]		
D (<25%)	6.21	CCN(c1cc(-c2ccc(CN3CCN(C(=O)CNCCCCCCNc4cccc5c4C(=O)N(C4CCC(=O)NC4=O)C5=O)CC3)cc2)cc(C(=O)NCc2c(C)cc(C)[nH]c2=O)c1C)C1CCOCC1 (stereo not shown) [Example 14, N-((4,6-dimethyl-2-oxo-1,2-dihydropyridine-3-yl)methyl)-4′-((4-((6-((2-(2,6-dioxopiperidine-3-yl)-1,3-dioxoisoindoline-4-yl)amino)hexyl)glycyl)piperazine-1-yl)methyl)-5-(ethyl(tetrahydro-2H-pyran-4-yl)amino)-4-methyl-[1,1′-biphenyl]-3-carboxamide]		
D (<25%)	0	CCN(c1cc(-c2ccc(CN3CCN(CC(=O)NCCCOCCNc4cccc5c4C(=O)N(C4CCC(=O)NC4=O)C5=O)CC3)cc2)cc(C(=O)NCc2c(C)cc(C)[nH]c2=O)c1C)C1CCOCC1 (stereo not shown) [Example 15, N-((4,6-dimethyl-2-oxo-1,2-dihydropyridine-3-yl)methyl)-4′-((4-(2-((3-(2-((2-(2,6-dioxopiperidine-3-yl)-1,3-dioxoisoindoline-4-yl)amino)ethoxy)propyl)amino)-2-oxoethyl)piperazine-1-yl)methyl)-5-(ethyl(tetrahydro-2H-pyran-4-yl)amino)-4-methyl-[1,1′-biphenyl]-3-carboxamide]		

SMILES	Grade (percent value of the protein degradation when treated with 1 μM) [1]	%, degradation at 1 uM [2] [%]	%, degradation at 1 uM [%]	Grade (percent value of the protein degradation when treated with 1 μM)
CCN(c1cc(-c2ccc(CN3CCN(CC(=O)NCCCCNc4cccc5c4C(=O)N(C4CCC(=O)NC4=O)C5=O)CC3)cc2)cc(C(=O)NCc2c(C)cc(C)[nH]c2=O)c1C)C1CCOCC1 (stereo not shown) [Example 3, N-((4,6-dimethyl-2-oxo-1,2-dihydropyridine-3-yl)methyl)-4′-((4-(2-((4-((2-(2,6-dioxopiperidine-3-yl)-1,3-dioxoisoindoline-4-yl)amino)butyl)amino)-2-oxoethyl)piperazine-1-yl)methyl)-5-(ethyl(tetrahydro-2H-pyran-4-yl)amino)-4-methyl-[1,1′-biphenyl]-3-carboxamide]	D (<25%)	13.61		
